Measured values reported in publication PMC8394412, “Identification and Characterization of Cannabidiol as an OX1R Antagonist by Computational and In Vitro Functional Validation” (Biomolecules, 2021).

Target: T1, orexin 1 receptor (OX1R) (Homo sapiens, UniProt O43613)
T1 construct: gene HCRTR1
T1 sequence (O43613 1-425): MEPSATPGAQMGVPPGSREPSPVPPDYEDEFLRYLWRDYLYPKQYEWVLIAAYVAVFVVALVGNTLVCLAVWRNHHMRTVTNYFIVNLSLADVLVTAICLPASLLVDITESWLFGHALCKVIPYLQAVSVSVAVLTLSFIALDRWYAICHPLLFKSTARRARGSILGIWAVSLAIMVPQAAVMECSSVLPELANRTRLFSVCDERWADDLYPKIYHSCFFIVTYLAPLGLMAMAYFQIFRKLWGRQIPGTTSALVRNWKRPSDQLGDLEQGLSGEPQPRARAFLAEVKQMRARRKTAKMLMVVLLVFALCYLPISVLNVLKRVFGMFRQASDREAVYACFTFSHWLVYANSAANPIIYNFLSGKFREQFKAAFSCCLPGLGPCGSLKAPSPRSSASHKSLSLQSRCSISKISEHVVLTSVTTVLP
Assay: […]orexin-A radioligand displacement on OX1R-CHO membranes; functional Ca2+ antagonism IC50 […]
Assay type: binding

Structure (SMILES): C=C(C)[C@@H]1CCC(C)=C[C@H]1c1c(O)cc(CCCCC)cc1O [CBD, cannabidiol]
- Ki: 1580 ± 200 nM
